Measured values reported in ChEMBL document CHEMBL4837183, “Antiproliferative Bufadienolides from the Bulbs of Drimia altissima” (2021).

Columns and labels:
Format in all cases: functional
LOX IMVI = experiment: Growth inhibition of human LOX IMVI cells measured after 48 hrs by SRB assay
786-0 = experiment: Growth inhibition of human 786-0 cells measured after 48 hrs by SRB assay
NCI-H460 = experiment: Growth inhibition of human NCI-H460 cells measured after 48 hrs by SRB assay
MOLT-4 = experiment: Growth inhibition of human MOLT-4 cells measured after 48 hrs by SRB assay
NCI-H522 = experiment: Growth inhibition of human NCI-H522 cells measured after 48 hrs by SRB assay
SK-MEL-5 = experiment: Growth inhibition of human SK-MEL-5 cells measured after 48 hrs by SRB assay
NCI-H322M = experiment: Growth inhibition of human NCI-H322M cells measured after 48 hrs by SRB assay
UO-31 = experiment: Growth inhibition of human UO-31 cells measured after 48 hrs by SRB assay
OVCAR-3 = experiment: Growth inhibition of human OVCAR-3 cells measured after 48 hrs by SRB assay
SK-MEL-28 = experiment: Growth inhibition of human SK-MEL-28 cells measured after 48 hrs by SRB assay
CAKI-1 = experiment: Growth inhibition of human CAKI-1 cells measured after 48 hrs by SRB assay
UACC-257 = experiment: Growth inhibition of human UACC-257 cells measured after 48 hrs by SRB assay
TK-10 = experiment: Growth inhibition of human TK-10 cells measured after 48 hrs by SRB assay
Hs-578T = experiment: Growth inhibition of human Hs-578T cells measured after 48 hrs by SRB assay
RXF 393 = experiment: Growth inhibition of human RXF 393 cells measured after 48 hrs by SRB assay
CCRF-CEM = experiment: Growth inhibition of human CCRF-CEM cells measured after 48 hrs by SRB assay
OVCAR-5 = experiment: Growth inhibition of human OVCAR-5 cells measured after 48 hrs by SRB assay
HCC 2998 = experiment: Growth inhibition of human HCC 2998 cells measured after 48 hrs by SRB assay
MDA-MB-435 = experiment: Growth inhibition of human MDA-MB-435 cells measured after 48 hrs by SRB assay
SF-295 = experiment: Growth inhibition of human SF-295 cells measured after 48 hrs by SRB assay
ACHN = experiment: Growth inhibition of human ACHN cells measured after 48 hrs by SRB assay
DU-145 = experiment: Growth inhibition of human DU-145 cells measured after 48 hrs by SRB assay
MDA-MB-468 = experiment: Growth inhibition of human MDA-MB-468 cells measured after 48 hrs by SRB assay
SR = experiment: Growth inhibition of human SR cells measured after 48 hrs by SRB assay
HOP-92 = experiment: Growth inhibition of human HOP-92 cells measured after 48 hrs by SRB assay
T47D = experiment: Growth inhibition of human T47D cells measured after 48 hrs by SRB assay
SK-OV-3 = experiment: Growth inhibition of human SK-OV-3 cells measured after 48 hrs by SRB assay
HT-29 = experiment: Growth inhibition of human HT-29 cells measured after 48 hrs by SRB assay
SN12C = experiment: Growth inhibition of human SN12C cells measured after 48 hrs by SRB assay
NCI-H23 = experiment: Growth inhibition of human NCI-H23 cells measured after 48 hrs by SRB assay
HOP-62 = experiment: Growth inhibition of human HOP-62 cells measured after 48 hrs by SRB assay
A549 = experiment: Growth inhibition of human A549 cells measured after 48 hrs by SRB assay
SNB-19 = experiment: Growth inhibition of human SNB-19 cells measured after 48 hrs by SRB assay
HCT-15 = experiment: Growth inhibition of human HCT-15 cells measured after 48 hrs by SRB assay
SK-MEL-2 = experiment: Growth inhibition of human SK-MEL-2 cells measured after 48 hrs by SRB assay
SW-620 = experiment: Growth inhibition of human SW-620 cells measured after 48 hrs by SRB assay
NCI-H226 = experiment: Growth inhibition of human NCI-H226 cells measured after 48 hrs by SRB assay
SF-539 = experiment: Growth inhibition of human SF-539 cells measured after 48 hrs by SRB assay
PC-3 = experiment: Growth inhibition of human PC-3 cells measured after 48 hrs by SRB assay
COLO 205 = experiment: Growth inhibition of human COLO 205 cells measured after 48 hrs by SRB assay
M14 = experiment: Growth inhibition of human M14 cells measured after 48 hrs by SRB assay
SF-268 = experiment: Growth inhibition of human SF-268 cells measured after 48 hrs by SRB assay
HL-60 = experiment: Growth inhibition of human HL-60 cells measured after 48 hrs by SRB assay
K562 = experiment: Growth inhibition of human K562 cells measured after 48 hrs by SRB assay
SNB-75 = experiment: Growth inhibition of human SNB-75 cells measured after 48 hrs by SRB assay
NCI/ADR-RES = experiment: Growth inhibition of human NCI/ADR-RES cells measured after 48 hrs by SRB assay
Malme-3M = experiment: Growth inhibition of human Malme-3M cells measured after 48 hrs by SRB assay
MCF7 = experiment: Growth inhibition of human MCF7 cells measured after 48 hrs by SRB assay
OVCAR-8 = experiment: Growth inhibition of human OVCAR-8 cells measured after 48 hrs by SRB assay
UACC-62 = experiment: Growth inhibition of human UACC-62 cells measured after 48 hrs by SRB assay
A498 = experiment: Growth inhibition of human A498 cells measured after 48 hrs by SRB assay
BT-549 = experiment: Growth inhibition of human BT-549 cells measured after 48 hrs by SRB assay
MDA-MB-231 = experiment: Growth inhibition of human MDA-MB-231 cells measured after 48 hrs by SRB assay
KM12 = experiment: Growth inhibition of human KM12 cells measured after 48 hrs by SRB assay
U-251 = experiment: Growth inhibition of human U-251 cells measured after 48 hrs by SRB assay
IGROV-1 = experiment: Growth inhibition of human IGROV-1 cells measured after 48 hrs by SRB assay
HCT-116 = experiment: Growth inhibition of human HCT-116 cells measured after 48 hrs by SRB assay

Work on `C[C@]12CC[C@H](O)C=C1CC[C@@H]1[C@@H]2[C@@H](O)C[C@]2(C)[C@@H](c3ccc(=O)oc3)CC[C@]12O` yielded a GI50 (LOX IMVI) of 1030 nM, a GI50 (786-0) of 541 nM and a GI50 (NCI-H460) of 365 nM. The GI50 (MOLT-4) was 369 nM, the GI50 (NCI-H522) was 377 nM and the GI50 (SK-MEL-5) was 703 nM. For the same compound, the GI50 (NCI-H322M) was 1230 nM, the GI50 (UO-31) was 653 nM and the GI50 (OVCAR-3) was 531 nM. For the same compound, the GI50 (SK-MEL-28) was 2970 nM, the GI50 (CAKI-1) was 436 nM and the GI50 (UACC-257) was 2630 nM. It also gave a GI50 (TK-10) of 750 nM, a GI50 (Hs-578T) of 337 nM and a GI50 (RXF 393) of 298 nM. The GI50 (CCRF-CEM) was 588 nM, the GI50 (OVCAR-5) was 2360 nM and the GI50 (HCC 2998) was 4320 nM. The GI50 (MDA-MB-435) was 1800 nM, the GI50 (SF-295) was 660 nM and the GI50 (ACHN) was 351 nM. It also gave a GI50 (DU-145) of 478 nM, a GI50 (MDA-MB-468) of 3750 nM and a GI50 (SR) of 1100 nM. For the same compound, the GI50 (HOP-92) was 2080 nM, the GI50 (T47D) was 1540 nM and the GI50 (SK-OV-3) was 2670 nM. For the same compound, the GI50 (HT-29) was 689 nM, the GI50 (SN12C) was 468 nM and the GI50 (NCI-H23) was 664 nM. It also gave a GI50 (HOP-62) of 454 nM, a GI50 (A549) of 353 nM and a GI50 (SNB-19) of 3860 nM. The GI50 (HCT-15) was 808 nM, the GI50 (SK-MEL-2) was 2330 nM and the GI50 (SW-620) was 559 nM. The GI50 (NCI-H226) was 1760 nM, the GI50 (SF-539) was 577 nM and the GI50 (PC-3) was 1330 nM. The GI50 (COLO 205) was 3400 nM, the GI50 (M14) was 2570 nM and the GI50 (SF-268) was 538 nM. It also gave a GI50 (HL-60) of 563 nM, a GI50 (K562) of 1390 nM and a GI50 (SNB-75) of 1170 nM. The GI50 (NCI/ADR-RES) was 657 nM, the GI50 (Malme-3M) was 1260 nM and the GI50 (MCF7) was 473 nM. It also gave a GI50 (OVCAR-8) of 780 nM, a GI50 (UACC-62) of 1760 nM and a GI50 (A498) of 362 nM. It also gave a GI50 (BT-549) of 371 nM, a GI50 (MDA-MB-231) of 5420 nM and a GI50 (KM12) of 3200 nM. For the same compound, the GI50 (U-251) was 1280 nM, the GI50 (IGROV-1) was 1820 nM and the GI50 (HCT-116) was 399 nM.
